Three molecules from patent US20260224692A1, “T CELL-DIRECTED ANTI-AGING AND ANTI-CANCER VACCINES AGAINST COMMENSAL CYTOMEGALOVIRUS” (The General Hospital Corporation, priority 2023, published 2026) can be followed below.

In one data set the test system is senescent fibroblasts. As to the kind of experiment: SCFA-mediated CD4+ T cell stimulation assay: T cell-mediated cytotoxicity against senescent fibroblasts. The data set is classed as cell-based, human. Conditions: T cells exposed to 5 mM SCFA for 2 days; 6 h co-culture; T cell to fibroblast ratio 50:1. As for the experimental part: FIGS. 15A-15B. […] (A) The frequency of cleaved caspase-3^+ senescent fibroblasts after co-culture for 6 h with skin T cells, which are preincubated with each 5 mM SCFAs for 2 days, using a skin T cell to fibroblast ratio of 50:1. All data are expressed as the mean±SD. n=3 individuals. (B) The effect of each SCFA (5 mM) treatment on the cytotoxicity of CD4^+ T cells. Flow cytometry analysis of perforin and CD107a expression on CD4^+ T cells exposed to each SCFA for 24 h. n=2 individuals. All data are expressed as the mean±SD.
T cells were seeded at a density of 2.5×10^5 cells into 60 mm dish, and were added to each 5 mM SCFAs, including butylate (EMD Millipore), pentanoate (Ambeed Inc), or propionate (Sigma-Aldrich) with 20 ng/ml human IL-2 recombinant and 20 ng/ml human IL-15 recombinant for 2 days. Following 2 days of co-incubation, T cells were subsequently added to each senescent fibroblasts-placed wells and were cultured in T cell medium with 20 ng/ml human IL-2 recombinant and 20 ng/ml human IL-15 recombinant in 24 well plate (Ratios of 50:1 T cells-to fibroblasts respectively). Following 6 hr of co-incubation, remaining fibroblasts were stained with vimentin and cleaved caspase-3 to examine the frequency of T cell-mediated cytotoxicity against senescent fibroblasts. […]

The next data set concerns skin CD4+ T cells. As to the kind of experiment: Flow cytometry analysis of perforin and CD107a expression on CD4+ T cells exposed to SCFA. Type of data set: cell-based, human. To be noted: 5 mM SCFA, 24 h. As for the experimental part:
FIGS. 15A-15B. Butyrate and pentanoate boost CD4 CTL-mediated clearance of senescent cells. (A) The frequency of cleaved caspase-3^+ senescent fibroblasts after co-culture for 6 h with skin T cells, which are preincubated with each 5 mM SCFAs for 2 days, using a skin T cell to fibroblast ratio of 50:1. All data are expressed as the mean±SD. n=3 individuals. (B) The effect of each SCFA (5 mM) treatment on the cytotoxicity of CD4^+ T cells. Flow cytometry analysis of perforin and CD107a expression on CD4^+ T cells exposed to each SCFA for 24 h. n=2 individuals. All data are expressed as the mean±SD.
Cells were washed once with PBS, including 5% newborn calf serum (Thermo Fisher Scientific, 26010074) and 0.01% sodium azide (Sigma-Aldrich, S2002-100G), and stained with antibodies (Tables 3B and 3B) on ice for 30 min followed by secondary antibody if needed (Table 3A). Following the surface marker staining, cells were fixed and permeabilized for intracellular staining using True-Nuclear Transcription Factor Buffer Set (BioLegend, 424401). Permeabilized cells were stained with antibodies (Table 3A) overnight at 4° C. […] Data were analyzed using FlowJo software (BD Life Sciences, Franklin Lakes, NJ). Relative fluorescence intensity was calculated by subtracting the median fluorescence intensity of isotype control from the median fluorescence intensity of stained samples.
Background: A flow cytometer gives signals particle by particle.

The next data set has as its system human skin CD4 CTLs. Kind of data set: Trans-well migration assay. Conditions: recombinant human CXCL9 50 nM (585 ng/mL) in bottom well, 60 min, vs PBS carrier. The data set is classed as cell-based. An excerpt: FIGS. 6A-6E. CXCL9 promotes the migration of human skin-resident CD4 CTLs. […] The percent cells in each gate are shown on the flow-cytometry plots. Zombie fixable viability dye (Viability) marks dead cells. (B) Representative flow-cytometry plots of CXCR3 expression on CD4^+ and CD8^+ T cells in the human skin. Numbers on the flow-cytometry plots represent the percent cells within each gate. (C) The experimental scheme for trans-well migration assay using the immune cells isolated from the human skin. (D and E) The effect of CXCL9 recombinant protein (585 ng/mL) treatment on the migration of human skin CD4 CTLs (D) and CD8^+ T cells (E). Skin samples from two independent donors were used to isolate skin-resident immune cells (female skin donors). Bar graphs show mean±SD, Mann-Whitney U test.
Skin-isolated cells were seeded at a density of 1.5×10^4 cells/well into the top inserts of the 24-well trans-well plate (Corning, 07-200-149). The pore size is 5 μm. RPMI containing recombinant human CXCL9 (PeproTech, 300-26) or PBS (carrier only) at the concentration of 50 nM was added into the bottom well. Skin-isolated cells were incubated for 60 min. Then, cells were counted and stained as described in the flow cytometry section.

In the case of `CCCC(=O)O` [butyrate], the “apoptosis (cleaved caspase-3+) in senescent fibroblasts by SCFA-exposed skin T cells” value in the data set with senescent fibroblasts was “highly induced apoptosis”. Besides, in the data set on skin CD4+ T cells, the “expression of perforin+ and CD107a+ on CD4+ T cells (cytotoxicity capacity)” value is “increase”. Taken in the same sequence, the figures for `CCCCC(=O)O` [pentanoate] were “highly induced apoptosis” and “increase”.

B1: CXCL9: recombinant human CXCL9 chemokine (PeproTech, 300-26), ligand of CXCR3 (protein, UniProt Q07325 23-125, looked up)
C-X-C motif chemokine 9: TPVVRKGRCSCISTNQGTIHLQSLKDLKQFAPSPSCEKIEIIATLKNGVQTCLNPDSADVKELIKKWEKQVSQKKKQKNGKKHQKKKVLKVRKSQRSRQKKTT
As to B1, the “migration of human skin CD4 CTLs” value in the data set with human skin CD4 CTLs is listed as “significantly induced the migration of CD4 CTLs”.
